From the NIST ThermoML archive (doi:10.1021/je700021f)

Experiment: xn = mol fraction of the nth substance listed
Settings: 101 kPa, Liquid, Pulse-echo method

CCCCCCCCCCl [1-chlorononane] + CCCCCCCCC
speed of sound [m/s]
Settings | x2 = 0 | x2 = 0.1 | x2 = 0.3 | x2 = 0.5 | x2 = 0.7 | x2 = 0.8 | x2 = 0.85 | x2 = 0.9
293.15 K | 1297.2 | 1283.1 | 1268.5 | 1254.2 | 1243.5 | 1232.8 | 1231.8 | 1222.6
298.15 K | 1278.2 | 1264.2 | 1249 | 1235 | 1223.5 | 1212.9 | 1211.9 | 1203.3
303.15 K | 1259.5 | 1245.4 | 1229.8 | 1215.9 | 1203.6 | 1193 | 1192.1 | 1184.1
308.15 K | 1240.9 | 1226.7 | 1210.6 | 1197 | 1183.9 | 1173.3 | 1172.4 | 1165
313.15 K | 1222.5 | 1208.1 | 1191.7 | 1178.1 | 1164.3 | 1153.7 | 1152.8 | 1145.9
318.15 K | 1204.3 | 1189.7 | 1172.8 | 1159.3 | 1144.9 | 1134.2 | 1133.4 | 1126.9
323.15 K | 1186.3 | 1171.4 | 1154.1 | 1140.6 | 1125.6 | 1114.9 | 1114 | 1107.9
328.15 K | 1168.4 | 1153.2 | 1135.6 | 1122 | 1106.5 | 1095.6 | 1094.7 | 1088.9
333.15 K | 1150.7 | 1135.2 | 1117.1 | 1103.6 | 1087.5 | 1076.5 | 1075.5 | 1070
338.15 K | 1133.2 | 1117.2 | 1098.9 | 1085.2 | 1068.7 | 1057.5 | 1056.4 | 1051.2
343.15 K | 1115.9 | 1099.4 | 1080.7 | 1066.9 | 1050 | 1038.6 | 1037.4 | 1032.4
348.15 K | 1098.8 | 1081.8 | 1062.7 | 1048.7 | 1031.5 | 1019.8 | 1018.5 | 1013.7
353.15 K | 1081.9 | 1064.2 | 1044.9 | 1030.6 | 1013.1 | 1001.1 | 999.7 | 995
358.15 K | 1065.1 | 1046.8 | 1027.2 | 1012.6 | 994.9 | 982.6 | 981 | 976.3
363.15 K | 1048.5 | 1029.5 | 1009.6 | 994.7 | 976.8 | 964.2 | 962.4 | 957.8
368.15 K | 1032.2 | 1012.3 | 992.2 | 976.9 | 958.9 | 945.8 | 943.9 | 939.2
373.15 K | 1015.9 | 995.2 | 974.9 | 959.2 | 941.1 | 927.7 | 925.5 | 920.7
378.15 K | 999.1 | 978.3 | 957.8 | 941.6 | 923.5 | 909.6 | 907.2 | 902.3
383.15 K | 982.7 | 961.5 | 940.8 | 924.1 | 906 | 891.6 | 889 | 883.9
388.15 K | 966.4 | 944.8 | 924 | 906.7 | 888.7 | 873.8 | 870.9 | 865.6
393.15 K | 950.3 | 928.3 | 907.3 | 889.4 | 871.5 | 856.1 | 852.9 | 847.3
398.15 K | 934.3 | 911.8 | 890.7 | 872.1 | 854.5 | 838.5 | 835 | 829.1
403.15 K | 918.4 | 895.5 | 874.3 | 855 | 837.6 | 821 | 817.2 | 810.9
408.15 K | 902.6 | 879.3 | 858 | 838 | 820.9 | 803.6 | 799.5 | 792.7
413.15 K | 887 | 863.3 | 841.9 | 821.1 | 804.3 | 786.3 | 781.9 | 774.6
418.15 K | 871.4 | 847.4 | 825.9 | 804.3 | 787.8 | 769.2 | 764.4 | 756.6
423.15 K | 856 | 831.5 | 810 | 787.5 | 771.6 | 752.2 | 747 | 738.6
